Laboratory results as given in PMC3351444, “Molecular Evolution of a Peptide GPCR Ligand Driven by Artificial Neural Networks” (PLoS ONE, 2012).
Like-named read-outs stand apart in the source and are kept apart here. Square brackets hold non-standard residues; d marks the D form. Ends that are not written are not given here. Peptide text beside a SMILES is read from it.

Experiments:
[1] = target: T1, human CMKLR1 (Homo sapiens, UniProt Q99788); assay: Ca2+ mobilization (CellLux imaging) agonist assay in HEK293A cells expressing CMKLR1 and Gα15; assay type: cell-based
T1 construct: host or cells: HEK293A (Invitrogen), stably expressing human Gα15
T1 sequence (Q99788 1-373): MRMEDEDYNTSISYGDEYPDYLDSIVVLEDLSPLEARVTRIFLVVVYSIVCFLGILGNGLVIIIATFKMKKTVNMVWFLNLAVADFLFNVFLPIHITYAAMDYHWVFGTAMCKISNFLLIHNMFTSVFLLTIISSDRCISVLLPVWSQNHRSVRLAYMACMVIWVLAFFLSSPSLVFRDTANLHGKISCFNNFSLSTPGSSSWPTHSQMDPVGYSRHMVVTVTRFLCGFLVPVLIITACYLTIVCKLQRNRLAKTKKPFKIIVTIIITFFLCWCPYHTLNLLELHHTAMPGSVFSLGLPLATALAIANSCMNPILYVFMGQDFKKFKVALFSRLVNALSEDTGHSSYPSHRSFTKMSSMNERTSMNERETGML
Outline: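 Agonist-evoked Ca2+ rise, read as FLUO4-AM fluorescence by imaging, in HEK293A cells carrying CMKLR1 plus Gα15. Peptides were diluted in C1 solution (pH 7.4) containing 0.1% BSA. Duplicate signals were averaged, corrected for buffer wells and normalized to background, and EC50 was fitted from amplitude versus concentration.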

[2] = In vitro peptide stability in human serum (RP-HPLC); details: for half-life at 50 µg/mL: human
[3] = Ca2+ mobilization, CMKLR1, decimal comma
[4] = Ca2+ mobilization, CMKLR1, decimal comma, NR where no EC50 is given, read-out: EC50
[5] = intracellular calcium mobilization, HEK293 cells expressing CMKLR1, mean of three independent experiments ± SD, read-out: activity: EC50 ±SD

Compound | max response [1, 3] | EC50 [1, 4] | half-life at 50 µg/mL ([2]; human serum, 25% (v/v) in RPMI) | EC50 [1, 5] | EC50 [1] | half-life at 50 µg/mL ([2]; serum) | t1/2 ([2]; metabolic stability in human serum)
C[C@H](NC(=O)[C@@H](N)Cc1ccc(O)cc1)C(=O)N[C@@H](Cc1ccccc1)C(=O)N[C@H](CO)C(=O)N1CCC[C@H]1C(=O)NCC(=O)N[C@@H](CCC(N)=O)C(=O)N[C@@H](Cc1ccccc1)C(=O)N[C@H](CO)C(=O)O [compound 93] (H-YAF[dS]PGQF[dS]-OH; N-terminus assumed) | 1,67 DF/F0 | 0.0644 µM | 81 min |  |  |  | 
CC(C)C[C@H](NC(=O)[C@@H](N)Cc1ccc(O)cc1)C(=O)N1CCC[C@H]1C(=O)N1CCC[C@@H]1C(=O)N1CCC[C@H]1C(=O)N[C@@H](Cc1ccc(O)cc1)C(=O)N[C@@H](C)C(=O)N[C@@H](Cc1ccccc1)C(=O)N[C@H](Cc1ccccc1)C(=O)O [compound 130] (H-YLP[dP]PYAF[dF]-OH; N-terminus assumed) | 1,72 DF/F0 | 0.0435 µM | 215 min |  |  |  | 
YLPGQYAFL-OH |  |  | 27 ± 4 min | 0.00575 ± 0.00256 µM |  |  | 
CC(C)C[C@H](NC(=O)[C@@H](N)Cc1ccc(O)cc1)C(=O)N1CCC[C@H]1C(=O)N[C@H](C)C(=O)N[C@@H](CCC(N)=O)C(=O)N[C@@H](Cc1ccc(O)cc1)C(=O)N[C@@H](C)C(=O)N[C@@H](Cc1ccccc1)C(=O)N[C@H](CO)C(=O)O [YLPaQYAFs] (H-YLP[dA]QYAF[dS]-OH; N-terminus assumed) |  |  | 110 ± 26 min | 0.00442 ± 0.00341 µM |  |  | 
CC(C)C[C@H](NC(=O)[C@@H](N)Cc1ccc(O)cc1)C(=O)N1CCC[C@H]1C(=O)NCC(=O)N[C@@H](CCC(N)=O)C(=O)N[C@@H](Cc1ccccc1)C(=O)N[C@@H](C)C(=O)N[C@H](Cc1ccccc1)C(=O)N[C@@H](Cc1ccccc1)C(=O)O [compound 42] (H-YLPGQFA[dF]F-OH; N-terminus assumed) | 1,07 DF/F0 | 0.00893 µM | 30 min |  |  |  | 
FLPGQPYFL-OH [compound 65] | 0,91 DF/F0 | 0.713 µM | 32 min |  |  |  | 
NC(=O)CC[C@H](NC(=O)CNC(=O)[C@@H]1CCCN1C(=O)[C@@H](Cc1ccc(O)cc1)NC(=O)[C@H](Cc1ccc(O)cc1)NC(=O)[C@H](CCC(N)=O)NC(=O)[C@H](N)Cc1ccccc1)C(=O)N[C@@H](Cc1ccc(O)cc1)C(=O)N[C@@H](Cc1ccc(O)cc1)C(=O)O [compound 137] (H-[dF]QY[dY]PGQYY-OH; N-terminus assumed) | 1,42 DF/F0 | 0.103 µM | 108 min |  |  |  | 
FLPGALGFF-OH [compound 60] | 0,69 DF/F0 | 0.406 µM | 19 min |  |  |  | 
CC(C)C[C@H](NC(=O)[C@@H](N)Cc1ccc(O)cc1)C(=O)N1CCC[C@H]1C(=O)N[C@H](Cc1ccc(O)cc1)C(=O)N[C@H](CCC(N)=O)C(=O)N[C@@H](Cc1ccc(O)cc1)C(=O)N[C@@H](C)C(=O)N[C@@H](CCC(N)=O)C(=O)N[C@H](Cc1ccccc1)C(=O)O [compound 150] (H-YLP[dY][dQ]YAQ[dF]-OH; N-terminus assumed) | 1,35 DF/F0 | 0.284 µM | 62 min |  |  |  | 
C[C@H](NC(=O)[C@H](Cc1ccccc1)NC(=O)[C@H](C)NC(=O)[C@H](Cc1ccccc1)NC(=O)[C@@H](N)CCC(N)=O)C(=O)N[C@@H](Cc1ccccc1)C(=O)N[C@@H](C)C(=O)N[C@@H](Cc1ccccc1)C(=O)N[C@H](CO)C(=O)O [compound 115] (H-QFAFAFAF[dS]-OH; N-terminus assumed) | 1,2 DF/F0 | 2.49 µM | 24 min |  |  |  | 
CC(C)C[C@@H](NC(=O)[C@H](Cc1c[nH]cn1)NC(=O)[C@H](N)CO)C(=O)NCC(=O)N[C@@H](CCC(N)=O)C(=O)N[C@@H](Cc1ccc(O)cc1)C(=O)N[C@@H](C)C(=O)N[C@H](CC(=O)O)C(=O)N[C@@H](CO)C(=O)O [compound 96] (H-[dS]H[dL]GQYA[dD]S-OH; N-terminus assumed) | 1,63 DF/F0 | 0.0905 µM | 3250 min |  |  |  | 
YLPGQFAFL-OH [compound 39] | 1,01 DF/F0 | 0.00585 µM | 24 min |  |  |  | 
CC(C)C[C@H](NC(=O)[C@@H]1CCCN1C(=O)[C@@H](NC(=O)[C@H](Cc1ccc(O)cc1)NC(=O)[C@@H]1CCCN1)C(C)C)C(=O)N[C@H](CC(=O)O)C(=O)N[C@@H](Cc1ccc(O)cc1)C(=O)N[C@@H](C)C(=O)N[C@@H](Cc1ccccc1)C(=O)O [compound 111] (H-PYVPL[dD]YAF-OH; N-terminus assumed) | 1,5 DF/F0 | 1.94 µM | 92 min |  |  |  | 
C[C@H](NC(=O)[C@H](Cc1ccc(O)cc1)NC(=O)[C@H](CCC(N)=O)NC(=O)[C@@H](CO)NC(=O)[C@H](Cc1ccccc1)NC(=O)[C@H](C)NC(=O)[C@@H](N)Cc1ccc(O)cc1)C(=O)N[C@@H](Cc1ccccc1)C(=O)N[C@H](CO)C(=O)O [compound 92] (H-YAF[dS]QYAF[dS]-OH; N-terminus assumed) | 1,54 DF/F0 | 0.0609 µM | 52 min |  |  |  | 
LLPGLFLKL-OH [compound 74] | 0,85 DF/F0 | 5.12 µM | 39 min |  |  |  | 
CC(C)C[C@H](NC(=O)[C@H](N)Cc1ccc(O)cc1)C(=O)N1CCC[C@H]1C(=O)NCC(=O)N[C@@H](CCC(N)=O)C(=O)N[C@@H](Cc1ccc(O)cc1)C(=O)N[C@@H](C)C(=O)N[C@@H](Cc1ccccc1)C(=O)N[C@@H](CO)C(=O)O [compound 82] (H-[dY]LPGQYAFS-OH; N-terminus assumed) | 1,61 DF/F0 | 0.00362 µM | 77 min |  |  |  | 
CC(C)C[C@H](NC(=O)[C@H](N)Cc1ccccc1)C(=O)N1CCC[C@H]1C(=O)NCC(=O)N[C@@H](CCC(N)=O)C(=O)N[C@@H](Cc1ccc(O)cc1)C(=O)N[C@@H](C)C(=O)N[C@@H](Cc1ccccc1)C(=O)N[C@H](Cc1ccccc1)C(=O)O [fLPGQYAFf] (H-[dF]LPGQYAF[dF]-OH; N-terminus assumed) |  |  | 1160 ± 41 min | 0.0082 ± 0.00396 µM |  |  | 
CC(C)C[C@H](NC(=O)[C@@H](N)Cc1ccc(O)cc1)C(=O)N1CCC[C@H]1C(=O)N[C@H](Cc1c[nH]c2ccccc12)C(=O)N[C@@H](CCC(N)=O)C(=O)N[C@@H](Cc1ccc(O)cc1)C(=O)N[C@@H](C)C(=O)N[C@@H](Cc1ccccc1)C(=O)N[C@H](Cc1ccccc1)C(=O)O [compound 127] (H-YLP[dW]QYAF[dF]-OH; N-terminus assumed) | 1,52 DF/F0 | 0.0356 µM | 124 min |  |  |  | 
YFLGQFAFK-OH [compound 76] | 0,65 DF/F0 | 5.83 µM | 16 min |  |  |  | 
FLPGQYAFS-OH |  |  | 28 ± 1 min | 0.00275 ± 0.00014 µM |  |  | 
PLPGQQAFF-OH [compound 79] | 0,6 DF/F0 |  | 84 min |  |  |  | 
CC(C)C[C@H](NC(=O)[C@@H](N)Cc1ccc(O)cc1)C(=O)N1CCC[C@H]1C(=O)N[C@H](CO)C(=O)N[C@@H](CCC(N)=O)C(=O)N[C@@H](Cc1ccc(O)cc1)C(=O)N[C@@H](C)C(=O)N[C@@H](Cc1ccccc1)C(=O)N[C@H](Cc1ccccc1)C(=O)O [compound 119] (H-YLP[dS]QYAF[dF]-OH; N-terminus assumed) | 1,62 DF/F0 |  |  |  | 0.00031 µM | 63 min | 
PLPGQFQFK-OH [compound 70] | 0,43 DF/F0 | 1.92 µM | 27 min |  |  |  | 
CC(C)[C@H](NC(=O)[C@@H](N)Cc1ccc(O)cc1)C(=O)N1CCC[C@H]1C(=O)NCC(=O)N[C@@H](CCC(N)=O)C(=O)N[C@@H](Cc1ccc(O)cc1)C(=O)N[C@@H](C)C(=O)N[C@@H](Cc1ccccc1)C(=O)N[C@H](CO)C(=O)O [compound 86] (H-YVPGQYAF[dS]-OH; N-terminus assumed) | 1,57 DF/F0 | 0.0218 µM | 24 min |  |  |  | 
YLPGQYAFY-OH [compound 48] | 0,92 DF/F0 | 0.0156 µM | 16 min |  |  |  | 
CC(C)[C@H](NC(=O)[C@@H](N)Cc1ccc(O)cc1)C(=O)N1CCC[C@H]1C(=O)NCC(=O)N[C@@H](CCC(N)=O)C(=O)N[C@@H](Cc1ccccc1)C(=O)N[C@@H](C)C(=O)N[C@@H](Cc1ccccc1)C(=O)N[C@H](Cc1ccccc1)C(=O)O [compound 35] (H-YVPGQFAF[dF]-OH; N-terminus assumed) | 0,96 DF/F0 |  |  |  |  |  | 42 min
